Measured values as given in ChEMBL document CHEMBL1201862, “PubChem BioAssay data set” (2004).
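These data come from cells grown in 96-well plates and exposed to compound for 48 hours at five concentrations. At the GI50, growth is halved.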 Activity calls are given as the source filed them. Cut-off read from the data, not from the text of the source: active = GI50 up to about 1.1 µM and inactive = higher.

Experiments:
Test in all cases: NCI tumour cell line growth inhibition, 48 h
[1] = system: CCRF-CEM
[2] = system: EKVX
[3] = system: HCC 2998
[4] = system: IGROV-1
[5] = system: M14
[6] = system: MDA-MB-231
[7] = system: MDA-MB-435
[8] = system: MDA-N
[9] = system: OVCAR-4
[10] = system: OVCAR-5
[11] = system: RPMI-8226
[12] = system: SF-295
[13] = system: SNB-19
[14] = system: SW-620
[15] = system: T47D
[16] = system: TK-10
[17] = system: U-251
[18] = system: UACC-257
[19] = system: UACC-62
[20] = system: HL-60

| SMILES | GI50 [1] | GI50 [2] | GI50 [3] | GI50 [4] | GI50 [5] | GI50 [6] | GI50 [7] | GI50 [8] | GI50 [9] | GI50 [10] | GI50 [11] | GI50 [12] | GI50 [13] | GI50 [14] | GI50 [15] | GI50 [16] | GI50 [17] | GI50 [18] | GI50 [19] | GI50 [20] |
| --- | --- | --- | --- | --- | --- | --- | --- | --- | --- | --- | --- | --- | --- | --- | --- | --- | --- | --- | --- | --- |
| COc1ccc(-c2cc(-c3ccccc3)nc(N)c2-c2ccc3ccccc3c2)cc1 | 3.13 µM (inactive) | 1.83 µM (inactive) | 1.83 µM (inactive) | 1.68 µM (inactive) | 2.53 µM (inactive) | 1.6 µM (inactive) | 2.11 µM (inactive) | 1.6 µM (inactive) | 0.979 µM (active) | 1.77 µM (inactive) | 2.13 µM (inactive) | 1.87 µM (inactive) | 1.18 µM (inactive) | 1.75 µM (inactive) | 1.69 µM (inactive) | 3.15 µM (inactive) | 1.95 µM (inactive) | 1.86 µM (inactive) | 1.58 µM (inactive) | – |
| CSc1ccc(NC(=S)NN(C)C)cc1 | > 10 µM (inactive) | > 10 µM (inactive) | > 10 µM (inactive) | > 10 µM (inactive) | > 10 µM (inactive) | > 10 µM (inactive) | > 10 µM (inactive) | > 10 µM (inactive) | > 10 µM (inactive) | – | > 10 µM (inactive) | > 10 µM (inactive) | > 10 µM (inactive) | > 10 µM (inactive) | > 10 µM (inactive) | > 10 µM (inactive) | > 10 µM (inactive) | > 10 µM (inactive) | > 10 µM (inactive) | > 10 µM (inactive) |
| CCc1ccccc1/N=N/C(=O)NNc1ccccc1CC | 25.3 µM (inactive) | – | 15.7 µM (inactive) | 11 µM (inactive) | 16.9 µM (inactive) | 21.3 µM (inactive) | 24.4 µM (inactive) | 18.3 µM (inactive) | 24 µM (inactive) | 14.9 µM (inactive) | 22.2 µM (inactive) | – | 25.8 µM (inactive) | 17.1 µM (inactive) | 6.78 µM (inactive) | 22.1 µM (inactive) | 16.1 µM (inactive) | 18.9 µM (inactive) | 10.3 µM (inactive) | 23.2 µM (inactive) |
| N=C1OC(c2c[nH]c3ccc(OCc4ccccc4)cc23)C(O)=C1O (stereo unspecified) | – | > 100 µM (inactive) | 0.951 µM (active) | > 100 µM (inactive) | > 100 µM (inactive) | 74.5 µM (inactive) | > 100 µM (inactive) | > 100 µM (inactive) | > 100 µM (inactive) | > 100 µM (inactive) | > 100 µM (inactive) | > 100 µM (inactive) | > 100 µM (inactive) | > 100 µM (inactive) | > 100 µM (inactive) | > 100 µM (inactive) | > 100 µM (inactive) | > 100 µM (inactive) | > 100 µM (inactive) | 71.1 µM (inactive) |
| CCC1NC(=O)C(NC(=O)c2ncccc2O)C(C)OC(=O)C(c2ccccc2)NC(=O)C2CC(=O)CCN2C(=O)C(Cc2ccccc2)N(C)C(=O)C2CCCN2C1=O (stereo unspecified) | 41.5 µM (inactive) | – | > 100 µM (inactive) | > 100 µM (inactive) | > 100 µM (inactive) | > 100 µM (inactive) | > 100 µM (inactive) | > 100 µM (inactive) | 57.1 µM (inactive) | > 100 µM (inactive) | > 100 µM (inactive) | > 100 µM (inactive) | > 100 µM (inactive) | > 100 µM (inactive) | > 100 µM (inactive) | > 100 µM (inactive) | > 100 µM (inactive) | > 100 µM (inactive) | > 100 µM (inactive) | 52.6 µM (inactive) |
| CO/N=C1\CC(NC(=O)C(F)(F)F)c2ccsc21 (stereo unspecified) | > 100 µM (inactive) | > 100 µM (inactive) | > 100 µM (inactive) | > 100 µM (inactive) | > 100 µM (inactive) | > 100 µM (inactive) | > 100 µM (inactive) | > 100 µM (inactive) | > 100 µM (inactive) | > 100 µM (inactive) | – | > 100 µM (inactive) | – | > 100 µM (inactive) | > 100 µM (inactive) | > 100 µM (inactive) | > 100 µM (inactive) | > 100 µM (inactive) | > 100 µM (inactive) | > 100 µM (inactive) |
| CCOC(=O)c1nc2cc(F)cc(F)c2[nH]c1=O | > 100 µM (inactive) | – | > 100 µM (inactive) | > 100 µM (inactive) | > 100 µM (inactive) | > 100 µM (inactive) | > 100 µM (inactive) | > 100 µM (inactive) | > 100 µM (inactive) | > 100 µM (inactive) | > 100 µM (inactive) | > 100 µM (inactive) | > 100 µM (inactive) | > 100 µM (inactive) | > 100 µM (inactive) | > 100 µM (inactive) | > 100 µM (inactive) | > 100 µM (inactive) | > 100 µM (inactive) | > 100 µM (inactive) |
